Test results published in patent publication US20240116946A1 (Gilead Sciences, Inc., priority 2022, published 2024).
Where two headings read alike, the source gives them in different places.

How the values were obtained:
[1] = target: recombinant SARS-CoV-2 Main protease (Mpro) (Severe acute respiratory syndrome coronavirus 2 (2019-nCoV) (SARS-CoV-2), UniProt P0DTD1); test: Cov Mpro Biochemical IC50 Assay; details: fluorogenic peptide substrate
SARS-CoV-2-NLuc = test: microbe, parasite or virus in culture; format: cell-based, SARS Coronavirus 2
[2] = recombinant SARS-CoV-2 Mpro, read-out: MPro IC50
[3] = Severe acute respiratory syndrome coronavirus, 48 h, read-out: MPro EC50
[4] = Severe acute respiratory syndrome coronavirus, 48 h; read-out: MPro EC50
[5] = MPro IC50, recombinant SARS-CoV-2 Mpro

| Structure (SMILES) | IC50 [1, 2] [nM] | EC50 (SARS-CoV-2-NLuc; [3]) [nM] | EC50 (SARS-CoV-2-NLuc; [4]) [nM] | IC50 [1, 5] [nM] |
| --- | --- | --- | --- | --- |
| Cc1c(C#N)cncc1-c1cccc(Cl)c1-c1ccc2c(=O)n(-c3cncc4ccccc34)c(=O)[nH]c2c1 [Example 205] | 44 | 41.2 |  |  |
| O=c1[nH]c2cc(-c3c(Cl)cccc3-c3cncc(C(F)(F)F)c3)ccc2c(=O)n1-c1cncc2ccccc12 [Example 206] | 42.4 | 20.6 |  |  |
| O=c1[nH]c2cc(-c3c(Cl)cccc3-c3cncc(F)c3)ccc2c(=O)n1-c1cncc2ccccc12 [Example 207] | 17.6 | 13.6 |  |  |
| Cc1cc(-c2cccc(Cl)c2-c2ccc3c(=O)n(-c4cncc5ccccc45)c(=O)[nH]c3c2)cc(C)n1 [Example 208] | 7.56 | 4.21 |  |  |
| CC(C)(O)c1cncc(-c2cccc(Cl)c2-c2ccc3c(=O)n(-c4cncc5ccccc45)c(=O)[nH]c3c2)c1 [Example 209] | 10.4 | 23.6 |  |  |
| COc1ccc(OC)c(-c2ccc3c(=O)n(-c4cncc5ccccc45)c(=O)[nH]c3c2)c1 [Example 210] | 2830 | 2980 |  |  |
| COc1ccc(Cl)c(-c2cc3[nH]c(=O)n(-c4cncc5ccccc45)c(=O)c3cc2F)c1 [Example 211] | 55.5 |  | 70.4 |  |
| COc1cc(F)c(Cl)c(-c2ccc3c(=O)n(-c4cncc5ccccc45)c(=O)[nH]c3c2)c1 [Example 212] | 831 | 752 |  |  |
| COc1c(C)cncc1-n1c(=O)[nH]c2cc(-c3ccccc3Cl)sc2c1=O [Example 213] | 16.4 |  | 31.1 |  |
| COCCOc1c(C)cncc1-n1c(=O)[nH]c2cc(-c3ccccc3Cl)sc2c1=O [Example 214] | 11.1 |  | 20.1 |  |
| COCCOCCOc1c(C)cncc1-n1c(=O)[nH]c2cc(-c3ccccc3Cl)sc2c1=O [Example 215] | 10.7 | 94.1 |  |  |
| Cc1ccncc1-n1c(=O)[nH]c2cc(-c3ccccc3Cl)sc2c1=O [Example 216] | 62.3 | 112 |  |  |
| CCc1cncc(-n2c(=O)[nH]c3cc(-c4ccccc4Cl)sc3c2=O)c1 [Example 217] | 66.6 | 96.2 |  |  |
| COc1ccc(C#N)c(-c2ccc3c(=O)n(-c4cncc5cccnc45)c(=O)[nH]c3c2)c1 [Example 218] | 20.9 |  | 82.8 |  |
| COc1ccc(Cl)c(-c2cnc3c(=O)n(-c4cncc5ccccc45)c(=O)[nH]c3c2)c1 [Example 219] | 5.06 |  | 181 |  |
| COC(=O)Cn1c(=O)n(-c2cncc3ccccc23)c(=O)c2sc(-c3ccccc3Cl)cc21 [Example 220] | 29.1 | 86.6 |  |  |
| COc1ccc(Cl)c(-c2cc(F)c3c(=O)n(-c4cncc5ccccc45)c(=O)[nH]c3c2)c1 [Example 221] | 65.8 |  | 50.6 |  |
| O=c1[nH]c2cc(-c3ccccc3Cl)cc(F)c2c(=O)n1-c1cncc2ccccc12 [Example 222] | 153 | 151 |  |  |
| N#Cc1ccccc1-c1cc(F)c2c(=O)n(-c3cncc4ccccc34)c(=O)[nH]c2c1 [Example 223] | 101 |  | 414 |  |
| COc1ccc(C#N)c(-c2cc3[nH]c(=O)n(-c4cncc5ccc(C(F)F)cc45)c(=O)c3s2)c1 [Example 224] | 10.2 | 124 |  |  |
| COc1ccc(C#N)c(-c2cc3[nH]c(=O)n(-c4cncc(C)c4OCC(F)(F)F)c(=O)c3s2)c1 [Example 225] | 12.1 | 87.7 |  |  |
| COc1ccc(Cl)c(-c2cc3[nH]c(=O)n(-c4cncc5ccc(N6CCS(=O)(=O)CC6)cc45)c(=O)c3s2)c1 [Example 226] | 3.74 | 23.7 |  |  |

| Structure (SMILES) | IC50 [1, 2] [nM] | EC50 (SARS-CoV-2-NLuc; [3]) [nM] | EC50 (SARS-CoV-2-NLuc; [4]) [nM] | IC50 [1, 5] [nM] |
| --- | --- | --- | --- | --- |
| COc1ccc(Cl)c(-c2cc3[nH]c(=O)n(-c4cncc5ccc(C(F)F)cc45)c(=O)c3s2)c1 [Example 227] | 11.3 | 25 |  |  |
| O=c1[nH]c2cc(-c3ccccc3Cl)sc2c(=O)n1-c1cncc2ccc(N3CC(F)(F)OC(F)(F)C3)cc12 [Example 228] | 294 | 73.1 |  |  |
| COc1ccc(Cl)c(-c2cc3[nH]c(=O)n(-c4cncc5ccc(N6CC(F)(F)OC(F)(F)C6)cc45)c(=O)c3s2)c1 [Example 229] | 22.5 | 28.9 |  |  |
| COc1ccc(C#N)c(-c2cc3[nH]c(=O)n(-c4cncc5ccc(N6CC(F)(F)OC(F)(F)C6)cc45)c(=O)c3s2)c1 [Example 230] | 23.8 | 128 |  |  |
| O=c1[nH]c2cc(-c3ccccc3Cl)sc2c(=O)n1-c1cncc2ccc(N3CC4C(C3)C4(F)F)cc12 (stereo not shown) [Example 231] | 22.1 | 37.4 |  |  |
| COc1ccc(Cl)c(-c2cc3[nH]c(=O)n(-c4cncc5ccc(N6CC7C(C6)C7(F)F)cc45)c(=O)c3s2)c1 (stereo not shown) [Example 232] | 17.6 | 34.9 |  |  |
| Cc1c(-c2cccc(Cl)c2-c2ccc3c(=O)n(-c4cncc5ccccc45)c(=O)[nH]c3c2)cn2ncnc2c1C [Example 233] | 12.3 | 26.8 |  |  |
| Cc1cc(-c2cccc(Cl)c2-c2ccc3c(=O)n(-c4cncc5ccccc45)c(=O)[nH]c3c2)cnn1 [Example 234] | < 5.67 | 21.2 |  |  |
| O=c1[nH]c2cc(-c3c(Cl)cccc3CO)sc2c(=O)n1-c1cncc2ccccc12 [Example 235] | 53.5 |  | 289 |  |
| O=C1NCc2ccc(-c3cccc(Cl)c3-c3ccc4c(=O)n(-c5cncc6ccccc56)c(=O)[nH]c4c3)cc21 [Example 236] | 86.8 | 228 |  |  |
| COc1ccc2cncc(-n3c(=O)[nH]c4cc(-c5ccccc5Cl)ccc4c3=O)c2c1 [Example 237] | 87 | 143 |  |  |
| COc1ccc(Cl)c(-c2ccc3c(=O)n(-c4cncc5ccc(OC)cc45)c(=O)[nH]c3c2)c1 [Example 238] | 48 |  | 54.5 |  |
| O=c1c2ccc(-c3ccccc3Cl)cc2[nH]c(=S)n1-c1cncc2ccccc12 [Example 239] |  |  | 1820 | 4840 |
| COc1ccc(Cl)c(-c2ccc3c(=O)n(-c4cncc5ccccc45)c(=S)[nH]c3c2)c1 [Example 240] |  |  | 520 | 1660 |
| O=c1[nH]c2cc(-c3c(Cl)cccc3-c3ccc4ncnn4c3)ccc2c(=O)n1-c1cncc2ccccc12 [Example 241] | 35 | 54 |  |  |
| NC(=O)c1cccc(-c2cccc(Cl)c2-c2ccc3c(=O)n(-c4cncc5ccccc45)c(=O)[nH]c3c2)c1 [Example 242] | 10.4 | 40.1 |  |  |
| Cc1c(-c2cccc(Cl)c2-c2ccc3c(=O)n(-c4cncc5ccccc45)c(=O)[nH]c3c2)cnn1C [Example 243] | 11.1 | 12.2 |  |  |
| Cc1cc(-c2cccc(Cl)c2-c2ccc3c(=O)n(-c4cncc5ccccc45)c(=O)[nH]c3c2)ccc1C(N)=O [Example 244] | 18.1 | 41 |  |  |
| Cc1cc(-c2cccc(Cl)c2-c2ccc3c(=O)n(-c4cncc5ccccc45)c(=O)[nH]c3c2)cn2nnnc12 [Example 245] | 13.2 | 20.4 |  |  |
| O=c1[nH]c2cc(-c3c(Cl)cccc3-c3cc4n(n3)CCC4)ccc2c(=O)n1-c1cncc2ccccc12 [Example 246] | 21 | 18.4 |  |  |
| Cn1cc2cc(-c3cccc(Cl)c3-c3ccc4c(=O)n(-c5cncc6ccccc56)c(=O)[nH]c4c3)ccc2n1 [Example 247] | 63 | 30.4 |  |  |
| Cn1cc2ccc(-c3cccc(Cl)c3-c3ccc4c(=O)n(-c5cncc6ccccc56)c(=O)[nH]c4c3)cc2n1 [Example 248] | 87.2 | 40.1 |  |  |
